US20230011869A1 (Hoffmann-La Roche Inc., priority 2018, published 2023)
Where a name gives a salt, the structure may show the parent alone.

tested on: Acinetobacter baumannii ATCC17978; assay: Antimicrobial susceptibility testing: 90% growth inhibitory concentration (IC90) determination, Iso-Sensitest broth; format: cell-based; conditions: 90% growth inhibitory concentration, Acinetobacter baumannii ATCC17978, Iso-Sensitest broth, OD 600 nm over 16 h; read-out: ATCC17978 IC90
Procedure: Antimicrobial Susceptibility Testing:
90% Growth Inhibitory Concentration (IC90) Determination
The in vitro antimicrobial activity of the compounds was determined according to the following procedure:
The assay used a 10-points Iso-Sensitest broth medium to measure quantitatively the in vitro activity of the compounds against Acinetobacter baumannii ATCC17978 and Acinetobacter baumannii ATCC17961.
Microtiter plates were incubated at 35±2° C.
Bacterial cell growth was determined with the measurement of optical density at λ=600 nm each 20 minutes over a time course of 16 h. Growth inhibition was calculated during the logarithmic growth of the bacterial cells with determination of the concentration inhibiting 50% (IC50) and 90% (IC90) of the growth.

Row | IC90 | Compound
1 | 0.19 µM | CO[C@@H]1CNC[C@H]1NC(=O)N1CCN(C(=O)c2ccc(Nc3nccn4c(-c5ccc(OC(F)F)cc5)cnc34)cc2C)CC1 (racemic) [Example 171, 4-[4-[[3-[4-(difluoromethoxy)phenyl]imidazo[1,2-a]pyrazin-8-yl]amino]-2-methyl-benzoyl]-N-[rac-(3R,4R)-4-methoxypyrrolidin-3-yl]piperazine-1-carboxamide hydrochloride]
2 | 0.29 µM | COc1ccc(-c2cnc3c(Nc4ccc(C(=O)N5CCN(C(=O)[C@H]6CCNC[C@H]6O)CC5)c(C)c4)nccn23)c(F)c1F (racemic) [Example 195, [4-[[3-(2,3-difluoro-4-methoxy-phenyl)imidazo[1,2-a]pyrazin-8-yl]amino]-2-methyl-phenyl]-[4-[rac-(3S,4S)-3-hydroxypiperidine-4-carbonyl]piperazin-1-yl]methanone]
3 | 0.18 µM | CCc1cc(Nc2nccn3c(-c4ccc(OCC#N)c(F)c4F)cnc23)ccc1C(=O)N1CCN(C(=O)[C@H]2CCNC[C@H]2O)CC1 (racemic) [Example 199, 2-[4-[8-[3-ethyl-4-[4-[rac-(3S,4S)-3-hydroxypiperidine-4-carbonyl]piperazine-1-carbonyl]anilino]imidazo[1,2-a]pyrazin-3-yl]-2,3-difluoro-phenoxy]acetonitrile formate]
4 | 0.83 µM | Cc1cc(Nc2nccn3c(-c4ccc(OC(F)F)cc4)cnc23)ccc1C(=O)N1CC[C@@H](C(=O)N2CCNCC2)[C@H](O)C1 (racemic) [Example 438, [4-[[3-[4-(difluoromethoxy)phenyl]imi-dazo[1,2-a]pyrazin-8-yl]amino]-2-methylphenyl]-[rac-(3R,4S)-3-hydroxy-4-(piperazine-1-carbonyl)piperidin-1-yl]methanone; 2,2,2-trifluoroacetic acid]
5 | 0.95 µM | COc1ccc(-c2cnc3c(Nc4ccc(C(=O)N5CC[C@@H](C(=O)N6CCNCC6)[C@H](O)C5)c(C)c4)nccn23)cc1F (racemic) [Example 440, [4-[[3-(3-fluoro-4-methoxyphenyl)imidazo[1,2-a]pyrazin-8-yl]amino]-2-methylphenyl]-[rac-(3R,4S)-3-hydroxy-4-(piperazine-1-carbonyl)piperidin-1-yl]methanone]
6 | 2.2 µM | CNCCNC(=O)[C@@H]1CCN(C(=O)c2ccc(Nc3nccn4c(-c5ccc(OC)c(F)c5)cnc34)cc2C)C[C@H]1O (racemic) [Example 449, rac-(3R,4S)-1-[4-[[3-(3-fluoro-4-methoxyphenyl)imidazo[1,2-a]pyrazin-8-yl]amino]-2-methylbenozyl]-3-hydroxy-N-[2-(methylamino)ethyl]piperidin-4-carboxamide; 2,2,2-trifluoroacetic acid]
7 | 0.23 µM | Cc1cc(Nc2nccn3c(-c4ccc(OCC#N)c(F)c4F)cnc23)ccc1C(=O)N1CCN(C(=O)[C@@H]2CCNC[C@H]2O)CC1 (racemic) [Example 472, 2-[2,3-difluoro-4-[8-[3-methyl-4-[4-[rac-(3R,4S)-3-hydroxypiperidine-4-carbonyl]piperazine-1-carbonyl]anilino]imidazo[1,2-a]pyrazin-3-yl]phenoxy]acetonitrile; for-mic acid]
8 | 0.63 µM | Cc1cc(Nc2nccn3c(-c4ccc(OC(F)F)cc4)cnc23)ccc1C(=O)N1CC[C@@H](C(=O)N2CCNCC2)[C@@H](O)C1 (racemic) [Example 530, [4-[[3-[4-(difluoromethoxy)phenyl]imi-dazo[1,2-a]pyrazin-8-yl]amino]-2-methylphenyl]-[rac-(3R,4R)-3-hydroxy-4-(piperazine-1-carbonyl)piperidin-1-yl]methanone; 2,2,2-trifluoroacetic acid]
9 | 2.3 µM | COc1ccc(-c2cnc3c(Nc4ccc(C(=O)N5CCN(C(=O)C(CC(=O)O)NC(=O)[C@@H](N)CCCCN)CC5)c(C)c4)nccn23)c(F)c1F (mixture of isomers) [Example 534, 4-[4-[4-[[3-(2,3-difluoro-4-methoxyphenyl)imidazo[1,2-a]pyrazin-8-yl]amino]-2-methylbenzoyl]piperazin-1-yl]-4-oxo-3-[[rac-(2R)-2,6-diaminohexanoyl]amino]bu-tanoic acid; hydrochloride]
10 | 4.1 µM | COc1ccc(-c2cnc3c(Nc4ccc(C(=O)N5CCN(C(=O)C(CCC(=O)O)NC(=O)[C@@H](N)CCCCN)CC5)c(C)c4)nccn23)c(F)c1F (mixture of isomers) [Example 536, 5-[4-[4-[[3-(2,3-difluoro-4-methoxyphenyl)imidazo[1,2-a]pyrazin-8-yl]amino]-2-methylbenzoyl]piperazin-1-yl]-5-oxo-4-[[rac-(2R)-2,6-diaminohexanoyl]amino]pen-tanoic acid; hydrochloride]
11 | 0.34 µM | CCc1cc(Nc2nccn3c(-c4ccc(OC)c(F)c4F)cnc23)ccc1C(=O)N1CCN(C(=O)[C@@H]2CCNC[C@@H]2O)CC1 (racemic) [Example 547, [4-[[3-(2,3-difluoro-4-methoxyphenyl)imidazo[1,2-a]pyrazin-8-yl]amino]-2-ethylphenyl]-[4-[rac-(3R,4R)-3-hydroxypiperidine-4-carbonyl]piperazin-1-yl]methanone; hydrochloride]
12 | 0.27 µM | Cc1cc(Nc2nccn3c(-c4ccc(OCC#N)c(F)c4F)cnc23)ccc1C(=O)N1CCN(C(=O)[C@@H]2CCNC[C@@H]2O)CC1 (relative stereo) [Example 196, 2-[2,3-difluoro-4-[8-[3-methyl-4-[4-[rac-(3R,4R)-3-hydroxypiperidine-4-carbonyl]piperazine-1-carbonyl]anilino]imidazo [1,2-a]pyrazin-3-yl]phenoxy] acetonitrile formate]
13 | 0.22 µM | COc1ccc(-c2cnc3c(Nc4ccc(C(=O)N5CCN(C(=O)[C@@H]6CCNC[C@@H]6O)CC5)c(C)c4)nccn23)c(Cl)c1F (relative stereo) [Example 218, [4-[[3-(2-chloro-3-fluoro-4-methoxy-phenyl)imidazo[1,2-a]pyrazin-8-yl]amino]-2-methyl-phenyl]-[4-[(3R,4R)-3-hydroxypiperidine-4-carbonyl]piperazin-1-yl]methanone]
14 | 1.7 µM | Cc1cc(Nc2nccn3c(-c4ccc(OC(F)F)cc4)cnc23)ccc1C(=O)N1CCC(C(=O)O)CC1 [Example 1, 1-(4-((3-(4-(difluoromethoxy)phenyl)imidazo[1,2-a]pyrazin-8-yl)amino)-2-methylbenzoyl)piperidine-4-carboxylic acid]
15 | 1.7 µM | COc1ccc(-c2cnc3c(Nc4ccc(C(=O)N5CCC(C(=O)O)CC5)c(C)c4)nccn23)cc1F [Example 2, 1-(4-((3-(3-fluoro-4-methoxyphenyl)imidazo[1,2-a]pyrazin-8-yl)amino)-2-methylbenzoyl)piperidine-4-carboxylic acid]
16 | 0.11 µM | Cc1cc(Nc2nccn3c(-c4ccc(OC(F)F)cc4)cnc23)ccc1C(=O)N1CCC(CCN)CC1 [Example 3, (4-(2-Aminoethyl)piperidin-1-yl)(4-((3-(4-(difluoromethoxy)phenyl)imidazo[1,2-a]pyrazin-8-yl)amino)-2-methylphenyl)methanone hydrochloride]

Row | Compound | IC90
17 | 1-[4-[[3-[4-(cyanomethoxy)-2,3-difluoro-phenyl]imidazo[1,2-a]pyrazin-8-yl]amino]-2-methyl-benzoyl]-N-methylsulfonyl-piperidine-4-carboxamide trifluoroacetate [Example 100] | 1.6 µM

same assay, conditions: Acinetobacter baumannii, ATCC17978, 16 h, read-out: ATCC17978 IC90, 90% growth inhibitory concentration, Acinetobacter baumannii ATCC17978, Iso-Sensitest broth, OD 600 nm over 16 h

Row | Compound | IC90
18 | Cc1cc(Nc2nccn3c(-c4ccc(OC(F)F)cc4)cnc23)ccc1C(=O)N1CCC(C(=O)N[C@@H]2C(O)O[C@H](CO)[C@@H](O)[C@@H]2O)CC1 (mixture of isomers) [Example 351, 1-[4-[[3-[4-(difluoromethoxy)phenyl]imi-dazo[1,2-a]pyrazin-8-yl]amino]-2-methylbenzoyl]-N-[rac-(3R,4S,5R,6S)-2,4,5-trihydroxy-6-(hydroxymethyl)oxan-3-yl]piperidine-4-carboxamide] | 0.72 µM
19 | Cc1cc(Nc2nccn3c(-c4ccc(OC(F)F)cc4)cnc23)ccc1C(=O)N1CCC(C(=O)N2C[C@H](O)[C@@H](O)C2)CC1 (racemic) [Example 415, [4-[[3-[4-(difluoromthoxy)phenyl]imi-dazo[1,2-a]pyrazin-8-yl]amino]-2-methylphenyl]-[4-[rac-(3R,4R)-3,4-dihydroxypyrrolidine-1-carbonyl]piperidin-1-yl]methanone] | 0.78 µM
20 | CNCCNC(=O)[C@@H]1CCN(C(=O)c2ccc(Nc3nccn4c(-c5ccc(OC)c(F)c5)cnc34)cc2C)C[C@@H]1O (racemic) [Example 439, rac-(3R,4R)-1-[4-[[3-(3-fluoro-4-methoxyphenyl)imidazo[1,2-a]pyrazin-8-yl]amino]-2-methylbenzoyl]-3-hydroxy-N-[2-(methyl-amino)ethyl]piperidine-4-carboxamide; 2,2,2-trifluoroacetic acid] | 0.91 µM
21 | COc1ccc(-c2cnc3c(Nc4ccc(C(=O)N5CCN(C(=O)[C@H]6CCNC[C@@H]6O)CC5)c(C)c4)nccn23)c(F)c1F (racemic) [Example 489, [4-[[3-(2,3-difluoro-4-methoxyphenyl)imidazo[1,2-a]pyrazin-8-yl]amino]-2-methylphenyl]-[4-[rac-(3R,4S)-3-hydroxypiperidine-4-carbonyl]piperazin-1-yl]methanone; hydrochloride] | 0.27 µM
22 | CCc1cc(Nc2nccn3c(-c4ccc(OCC#N)c(F)c4F)cnc23)ccc1C(=O)N1CCN(C(=O)[C@H]2CCNC[C@@H]2O)CC1 (racemic) [Example 498, 2-[4-[8-[3-ethyl-4-[4-[rac-(3R,4S)-3-hydroxypiperidine-4-carbonyl]piperazine-1-carbonyl]anilino]imidazo[1,2-a]pyrazin-3-yl]-2,3-difluorophenoxy]acetonitrile; formic acid] | 0.33 µM
